What was measured:
eukaryotic cells = details: cited from earlier work; for cytotoxic activity against eukaryotic cells: Hofle et al., 1996; for cytotoxicity relative to epothilones A and B: desoxy counterparts compared with epothilones A and B
[1] = system: breast and colon tumor cell lines; details: Hofle et al., 1996; cited from earlier work
[2] = Chou et al., 1998; cited from earlier work
EpoK = target: T1, EpoK (Sorangium cellulosum, UniProt Q9KIZ4); test: EpoK assay: conversion of epothilone D to epothilone B by recombinant his-tagged EpoK, LC/MS; assay type: biochemical; details: 30° C., 67 minutes
T1 construct: His6 (six histidine residues); made in house; host or cells: E. coli BL21(DE3) with pREP4-groELS; plasmids pKOS55-121 (N-terminal his) and pKOS55-129 (C-terminal his) in pET22b
T1 sequence (Q9KIZ4 1-419): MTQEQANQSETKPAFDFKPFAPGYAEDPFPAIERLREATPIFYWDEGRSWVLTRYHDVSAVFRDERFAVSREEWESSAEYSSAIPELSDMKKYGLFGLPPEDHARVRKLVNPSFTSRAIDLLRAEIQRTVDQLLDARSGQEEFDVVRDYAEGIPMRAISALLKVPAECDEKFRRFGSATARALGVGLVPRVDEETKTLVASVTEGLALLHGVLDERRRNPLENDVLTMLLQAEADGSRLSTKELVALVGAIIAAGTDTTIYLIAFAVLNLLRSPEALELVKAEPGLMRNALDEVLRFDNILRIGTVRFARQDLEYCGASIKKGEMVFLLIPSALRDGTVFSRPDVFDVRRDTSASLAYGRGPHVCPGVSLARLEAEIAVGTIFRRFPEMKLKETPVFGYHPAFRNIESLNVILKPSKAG
Description: This Example describes the construction of E. coli expression vectors for heterologous expression of the Sorangium cellulosum epoK gene. The E. coli produced EpoK enzyme can be used in assays to identify inhibitors for use in the methods of the invention. The epoK gene product was expressed in E. coli as a fusion protein with a polyhistidine tag (his tag). The fusion protein was purified and used to convert epothilone D to epothilone B. This assay can be readily adapted to identify EpoK inhibitors.
Purification of EpoK was performed as follows. Plasmids pKOS55-121 and pKOS55-129 were transformed into BL21(DE3) containing the groELS expressing plasmid pREP4-groELS (Caspers et al., 1994, Cellular and Molecular Biology 40(5):635-644). The strains were inoculated into 250 mL of M9 medium supplemented with 2 mM MgSO4, 1% glucose, 20 mg thiamine, 5 mg FeCl2, 4 mg CaCl2 and 50 mg levulinic acid. The cultures were grown to an OD600 between 0.4 and 0.6, at which point IPTG was added to 1 mM, and the cultures were allowed to grow for an additional two hours. The cells were harvested and frozen at −80° C. The frozen cells were resuspended in 10 ml of buffer 1 (5 mM imidizole, 500 mM NaCl, and 45 mM Tris pH 7.6) and were lysed by sonicating three times for 15 seconds each on setting 8. The cellular debris was pelleted by centrifugation in an SS-34 rotor at 16,000 rpm for 30 minutes. The supernatant was removed and centrifuged again at 16,000 rpm for 30 minutes. The supernatant was loaded onto a 5 mL nickel column (Novagen), after which the column was washed with 50 mL of buffer 1 (Novagen). EpoK was eluted with a gradient from 5 mM to 1M imidizole. Fractions containing EpoK were pooled and dialyzed twice against 1 L of dialysis buffer (45 mM Tris pH7.6, 0.2 mM DTT, 0.1 mM EDTA, and 20% glycerol). Aliquots were frozen in liquid nitrogen and stored at −80° C. The protein preparations were greater than 90% pure.
The EpoK assay was performed as follows. Briefly, reactions consisted of 50 mM Tris (pH7.5), 21 µM spinach ferredoxin, 0.132 units of spinach ferredoxin: NADP^+oxidoreductase, 0.8 units of glucose-6-phosphate dehydrogenase, 1.4 mM NADP, and 7.1 mM glucose-6-phosphate, 100 μM or 200 ,μM epothilone D (a generous gift of S. Danishefsky), and 1.7 ,μM amino terminal his tagged EpoK or 1.6 μM carboxy terminal his-tagged EpoK in a 100 μL volume. The reactions were incubated at 30° C. for 67 minutes and stopped by heating at 90° C. for 2 minutes. The insoluble material was removed by centrifugation, and 50 μL of the supernatant were analyzed by LC/MS. […] In the presence of 200 μM, conversion was 44% and 21%, respectively.

[3] = Harris et al., 1999; cited from earlier work
[4] = system: Sorangium cellulosum strain So ce 90; test: Effect of metyrapone on growth of So ce 90 (FIG. 2); assay type: cell-based; details: metyrapone at 5 mM and 10 mM
Procedure: To prepare a seed culture, transfer cells from the DSM 6773 ampoule into a 250 mL baffled Erleneyer flask with 38 mm silicone foam closures containing 50 mL of sterile soybean meal. Soybean meal contains potato starch (Product No. S-2004, Sigma), 8 g/L; defatted soybean meal (Type 4890, Archer Daniels Midland), 2 g/L; yeast extract (Product No. BP 1422-500, Fisher Biotech), 2g/L; Iron (III) sodium salt EDTA (Product No. EDFS, Sigma), 0.008 g/L; MgSO4.7H20 (Product No. M-5921, Sigma), 1 g/L; CaCl2.2H20 (Product No. C-3991, Sigma), 1 g/L; glucose (Product No. G-5400, Sigma), 2g/L; HEPES buffer (Product No. H-3375, Sigma), 11.5 g/L. Use deionized water, and adjust pH to 7.4 with 10% KOH. Sterilize the flasks by autoclaving at 121° C. for at least 30 minutes. After autoclaving, add 2-3 drops of antifoam B to prevent foaming. Incubate the culture at 32° C. in a 250 RPM shaker for 4 days. After 4 days, the culture should appear an orange color. […]
To extract epothilone C and/or D, transfer the culture into a 50 mL centrifuge tube (Product no. 21008-178, VWR Scientific Products). […] Quantitation of epothilones C and D was performed by HPLC analysis with UV-DAD detection at 250 nm. […] Under these conditions, epothilone C was detected at 10.3 minutes and epothilone D was detected at 13.0 minutes. […]

[5] = system: Sorangium cellulosum strain So ce 90; test: Production of epothilones A, B, C and D by So ce 90 fermented in the presence of a P450 inhibitor, HPLC quantitation; assay type: cell-based; details: 10 mM metyrapone in production medium, 7 days
Procedure: To prepare a seed culture, transfer cells from the DSM 6773 ampoule into a 250 mL baffled Erleneyer flask with 38 mm silicone foam closures containing 50 mL of sterile soybean meal. Soybean meal contains potato starch (Product No. S-2004, Sigma), 8 g/L; defatted soybean meal (Type 4890, Archer Daniels Midland), 2 g/L; yeast extract (Product No. BP 1422-500, Fisher Biotech), 2g/L; Iron (III) sodium salt EDTA (Product No. EDFS, Sigma), 0.008 g/L; MgSO4.7H20 (Product No. M-5921, Sigma), 1 g/L; CaCl2.2H20 (Product No. C-3991, Sigma), 1 g/L; glucose (Product No. G-5400, Sigma), 2g/L; HEPES buffer (Product No. H-3375, Sigma), 11.5 g/L. Use deionized water, and adjust pH to 7.4 with 10% KOH. Sterilize the flasks by autoclaving at 121° C. for at least 30 minutes. After autoclaving, add 2-3 drops of antifoam B to prevent foaming. Incubate the culture at 32° C. in a 250 RPM shaker for 4 days. After 4 days, the culture should appear an orange color. Production cultures were prepared by sterilizing 50 mL of sterile soybean meal medium and 1 g of Amberlite XAD-16 absorption resin in a 250 mL baffled Erlenmeyer flask. Metyrapone (Product No. 856525, Sigma) is prepared by reconstituting to a final concentration of 2.5 M with 50:50 (v/v) DMSO:H2O. Metyrapone was added to a final concentration of 5 mM and 10 mM in each flask. 5 mL of the seed culture was inoculated to each flask and incubated at 30° C. in a shaker at 250 RPM for 7 days.
To extract epothilone C and/or D, transfer the culture into a 50 mL centrifuge tube (Product no. 21008-178, VWR Scientific Products). Decant the excess medium in the centrifuge tube without pouring off any of the resin. Wash the XAD-16 resin with 25 mL of H2O and allow the XAD-16 resin to settle by gravity in the tube. Carefully decant the H2O, and add 20 mL of 100% methanol to the tube. Place the centrifuge tube on a shaker at 175 RPM for 20-30 minutes to extract the epothilone products from the resin. Allow the XAD-16 pellets to settle, and transfer 2 mL using a pipette to a HPLC tube (Product nos. C4010-13, C4010-60A, National Scientific Company). Quantitation of epothilones C and D was performed by HPLC analysis with UV-DAD detection at 250 nm. 50 uL of the methanol extract was injected across a 4.6×10 mm guard column (Inertsil, C18 OD 53, 5um) and a 4.6 x 150 mm […] (Inertisil, C18 OD 53, 5 um). The assay method was isocratic, eluting with 60% acetonitrile and 40% water for 18 minutes at a flow rate of 1 ml/min. Under these conditions, epothilone C was detected at 10.3 minutes and epothilone D was detected at 13.0 minutes. The results showing the highest production of epothilones C and D, and the lowest production of epothilones A and B, in the presence of metyrapone and various other inhibitors is shown in FIG. 1. […]

Structure (SMILES): C/C(=C\c1csc(C)n1)[C@@H]1C[C@@H]2O[C@@H]2CCC[C@H](C)[C@H](O)[C@@H](C)C(=O)C(C)(C)[C@@H](O)CC(=O)O1 [epothilone A]
- cytotoxic activity against eukaryotic cells (eukaryotic cells): broad cytotoxic activity
- activity against breast and colon tumor cell lines [1]: noticeable activity and selectivity

Structure (SMILES): C/C(=C\c1csc(C)n1)[C@@H]1C[C@@H]2O[C@]2(C)CCC[C@H](C)[C@H](O)[C@@H](C)C(=O)C(C)(C)[C@@H](O)CC(=O)O1 [epothilone B]
- cytotoxic activity against eukaryotic cells (eukaryotic cells): broad cytotoxic activity
- activity against breast and colon tumor cell lines [1]: noticeable activity and selectivity

Structure (SMILES): C/C(=C\c1csc(C)n1)[C@@H]1C/C=C\CCC[C@H](C)[C@H](O)[C@@H](C)C(=O)C(C)(C)[C@@H](O)CC(=O)O1 [epothilone C]
- cytotoxicity relative to epothilones A and B (eukaryotic cells): less cytotoxic

Structure (SMILES): C/C1=C/C[C@@H](/C(C)=C/c2csc(C)n2)OC(=O)C[C@H](O)C(C)(C)C(=O)[C@H](C)[C@@H](O)[C@@H](C)CCC1 [epothilone D]
- toxicity among naturally occurring epothilones studied [2]: lowest toxicity
- cytotoxicity relative to epothilones A and B (eukaryotic cells): less cytotoxic
- conversion of epothilone D to epothilone B (EpoK; 100 μM epothilone D, 1.6 μM carboxy terminal his-tagged EpoK): 58%
- conversion of epothilone D to epothilone B (EpoK; 100 μM epothilone D, 1.7 μM amino terminal his tagged EpoK): 82%
- conversion of epothilone D to epothilone B (EpoK; 200 μM epothilone D, 1.6 μM carboxy terminal his-tagged EpoK): 21%
- conversion of epothilone D to epothilone B (EpoK; 200 μM epothilone D, 1.7 μM amino terminal his tagged EpoK): 44%
- efficacy among naturally occurring epothilones studied [3]: greatest efficacy

Structure (SMILES): CC(C)(C(=O)c1cccnc1)c1cccnc1 [metyrapone, 2-methyl-1,2-di-3-pyridyl-1-propanone]
- effect on growth of So ce 90 [4]: does not detrimentally inhibit the growth
- epothilone D produced by So ce 90 ([5]; without inhibitor 0.5 mg/L): 0.1 mg/L
- epothilone C produced by So ce 90 ([5]; without inhibitor 1.0 mg/L): 0.5 mg/L
- epothilone B produced by So ce 90 ([5]; without inhibitor 1.7 mg/L): 0.3 mg/L
- epothilone A produced by So ce 90 ([5]; without inhibitor 3.6 mg/L): 0.9 mg/L

From patent US20020137152A1, “Fermentation process for epothilones” (priority 2000, published 2002)
